# In PubChem BioAssay AID1845209 (Molecular Pharmacology Branch, DTP, NCI, 2023):
# pIC50: −log10 of the molar value.
# Tested on: NCI-H211 tumor spheroids, viability percent test/control
# Assay: Anticancer human tumor NCI-H211 cell line growth inhibition;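 further: spheroids exposed to agents for seven days before readout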
# Settings: spheroids with HUVEC and MSC; for pIC50: curve of first compound; for viability, T/C: stronger effect = lower value
# Text: Multicellular complex tumor spheroid response to DNA repair inhibitors in combination with DNA-damaging drugs
# This study explores the anticancer activities of DNA-damaging drugs and inhibitors of DNA damage repair, both as single agents and in combinations. Complex tumor spheroids comprised of malignant cells, endothelial cells and mesenchymal stem cells served as an in vitro model for human solid tumors. This model system incorporates physiologically relevant features and patient-derived or established malignant cell lines with clinically relevant genetic alterations from many tumor types. Twenty-six patient-derived or established malignant cell lines were evaluated representing sarcoma, melanoma, small cell lung cancer (SCLC), non-small cell lung cancer (NSCLC), as well as bladder, ovarian and pancreatic cancers. The concentration ranges selected for each drug and investigational agent were based upon clinically achievable concentrations if the clinical Cmax of the agent was known.
# Compounds. The drugs and compounds olaparib (NSC753686), talazoparib (NSC767125), berzosertib (NSC777718), elimusertib (NSC800525), nedisertib (NSC802822), VX-984 (NSC792969), AZD-1390 (NSC803789), temozolomide (NSC362856), topotecan (NSC609699), trabectedin (NSC813783), staurosporine (NSC755774), and gemcitabine (NSC613327) were obtained from the National Cancer Institute (NCI) Developmental Therapeutics Program Chemical Repository. The FDA-approved anticancer drug set is available from the Developmental Therapeutics Program at https://dtp.cancer.gov/organization/dscb/obtaining/available_plates.htm. […] The stock solutions were prepared in dimethyl sulfoxide (DMSO, Sigma-Aldrich, St. Louis, MO, cat. D2650) at 400-fold the tested concentration and stored at -70 degrees C. Prior to their use, the stock solutions were diluted in fresh medium and the final DMSO concentration in the assay was 0.25% (v/v). All drugs and investigational agents were tested over a range starting from a high concentration at or near the clinical Cmax and decreasing in half-log increments. If the clinical Cmax for an agent had not been determined, the highest concentration tested was 10 microM.
# Cell Lines. The patient-derived cancer cell (PDC) lines: 156681-154-R-J1-PDC, 283228-195-R-J1-PDC, 287954-098-R-J1-PDC, 292921-168-R-J2-PDC, 349418-098-R-PDC, 425362-245-T-J1-PDC, 556581-035-R-J1-PDC, and BL0293-F563-PDC were received from the NCI Patient-Derived Models Repository (PDMR, https://pdmr.cancer.gov). The established cell lines HS-SY-2 (RRID:CVCL_8719), MPNST, and SYO-1 (RRID:CVCL_7146) were obtained from the Sloan Kettering Institute. The alveolar soft parts sarcoma cell line ASPS-1 (RRID:CVCL_S738) was established at the NCI and grown from internal seed stocks. The following established cell lines were purchased from the American Type Culture Collection (ATCC, Manassas, VA): G-401 (ATCC, cat. CRL-1441, RRID:CVCL_0270), SW982 (ATCC, cat. HTB-93, RRID:CVCL_1734), VA-ES-BJ (ATCC, cat. CRL-2138, RRID:CVCL_1785), NCI-H719 (ATCC, cat. CRL-5837, RRID:CVCL_1582), NCI-H196 (ATCC, cat. CRL-5823, RRID:CVCL_1509), NCI-H841 (ATCC, cat. CRL-5845, RRID:CVCL_1595), NCI-H1618 (ATCC, cat. CRL-5879, RRID:CVCL_1480), NCI-H1876 (ATCC, cat. CRL-5902, RRID:CVCL_1503), DMS 114 (ATCC, cat. CRL-2066; RRID:CVCL_1174), NCI-H211 (ATCC, cat. CRL-5824; RRID:CVCL_1529), and SW 1271 (ATCC, cat. CRL-2177, RRID:CVCL_1716). The small cell lung cancer cell line COR-L88 was purchased from Sigma-Aldrich (cat. 92031917-1VL, RRID:CVCL_1141). The non-small cell lung cancer cell lines NCI-H226 (RRID:CVCL_1544) and NCI-H322M (RRID:CVCL_1557) were established at the NCI and grown from internal seed stocks. Pooled donor human umbilical vein endothelial cells (HUVEC, Lonza, cat. CC-2519) and human mesenchymal stem cells (hMSC, Lonza, cat. PT-2501) were purchased from Lonza (Walkersville, MD).
# Cell Culture. All cells were maintained in an incubator at 37 degrees C and 5% CO2 with 95% humidity. […]
# [1] = second compound 0.003 µM, first compound 0.00949 µM
# [2] = second compound 0.003 µM, first compound 0.03 µM
# [3] = second compound 0.003 µM, first compound 0.0949 µM
# [4] = second compound 0.003 µM, first compound 0.3 µM
# [5] = second compound 0.003 µM, first compound 0.949 µM
# [6] = second compound 0.003 µM, first compound 3 µM
# [7] = second compound 0.00949 µM, first compound 0.00949 µM
# [8] = second compound 0.00949 µM, first compound 0.03 µM
# [9] = second compound 0.00949 µM, first compound 0.0949 µM
# [10] = second compound 0.00949 µM, first compound 0.3 µM
# [11] = second compound 0.00949 µM, first compound 0.949 µM
# [12] = second compound 0.00949 µM, first compound 3 µM
# [13] = second compound 0.03 µM, first compound 0.00949 µM
# [14] = second compound 0.03 µM, first compound 0.03 µM
# [15] = second compound 0.03 µM, first compound 0.0949 µM
# [16] = second compound 0.03 µM, first compound 0.3 µM
# [17] = second compound 0.03 µM, first compound 0.949 µM
# [18] = second compound 0.03 µM, first compound 3 µM
# [19] = second compound 0.0949 µM, first compound 0.00949 µM
# [20] = second compound 0.0949 µM, first compound 0.03 µM
# [21] = second compound 0.0949 µM, first compound 0.0949 µM
# [22] = second compound 0.0949 µM, first compound 0.3 µM
# [23] = second compound 0.0949 µM, first compound 0.949 µM
# [24] = second compound 0.0949 µM, first compound 3 µM
# [25] = second compound 0.3 µM, first compound 0.00949 µM
# [26] = second compound 0.3 µM, first compound 0.03 µM
# [27] = second compound 0.3 µM, first compound 0.0949 µM
# [28] = second compound 0.3 µM, first compound 0.3 µM
# [29] = second compound 0.3 µM, first compound 0.949 µM
# [30] = second compound 0.3 µM, first compound 3 µM
Compound,pIC50 (second compound 0.003 µM),pIC50 (second compound 0.00949 µM),pIC50 (second compound 0.03 µM),pIC50 (second compound 0.0949 µM),pIC50 (second compound 0.3 µM),"viability, T/C [1]","viability, T/C [2]","viability, T/C [3]","viability, T/C [4]","viability, T/C [5]","viability, T/C [6]","viability, T/C [7]","viability, T/C [8]","viability, T/C [9]","viability, T/C [10]","viability, T/C [11]","viability, T/C [12]","viability, T/C [13]","viability, T/C [14]","viability, T/C [15]",other results
CNCc1ccc(-c2cc(-c3nc(-c4ccc(S(=O)(=O)C(C)C)cc4)cnc3N)on2)cc1 + CC[C@@]1(O)C(=O)OCc2c1cc1n(c2=O)Cc2cc3c(CN(C)C)c(O)ccc3nc2-1,8.02,> 8.02,> 8.02,> 8.02,> 8.02,50.5%,9.5%,0.85%,0.92%,0.05%,0.11%,3.19%,1.35%,1.06%,1.09%,0.11%,0.11%,0.96%,0.98%,0.97%,"viability, T/C [16]: 1.07%; viability, T/C [17]: 0.14%; viability, T/C [18]: 0.11%; viability, T/C [19]: 1.04%; viability, T/C [20]: 1.29%; viability, T/C [21]: 1.06%; viability, T/C [22]: 0.67%; viability, T/C [23]: 0.12%; viability, T/C [24]: 0.13%; viability, T/C [25]: 0.95%; viability, T/C [26]: 1.15%; viability, T/C [27]: 1.37%; viability, T/C [28]: 0.82%; viability, T/C [29]: 0.21%; viability, T/C [30]: 0.18%"
Cc1sc2c(c1C)C(c1ccc(Cl)cc1)=NC(CC(=O)Nc1ccc(O)cc1)c1nnc(C)n1-2 (stereo not given) + CC[C@@]1(O)C(=O)OCc2c1cc1n(c2=O)Cc2cc3c(CN(C)C)c(O)ccc3nc2-1,> 8.02,> 8.02,> 8.02,> 8.02,> 8.02,30.2%,3.07%,0.77%,0.53%,0.42%,0.44%,3.11%,0.89%,0.89%,0.57%,0.46%,0.57%,0.97%,0.72%,0.81%,"viability, T/C [16]: 0.54%; viability, T/C [17]: 0.57%; viability, T/C [18]: 0.55%; viability, T/C [19]: 0.76%; viability, T/C [20]: 0.8%; viability, T/C [21]: 0.73%; viability, T/C [22]: 0.79%; viability, T/C [23]: 0.59%; viability, T/C [24]: 0.6%; viability, T/C [25]: 0.94%; viability, T/C [26]: 0.9%; viability, T/C [27]: 0.83%; viability, T/C [28]: 0.85%; viability, T/C [29]: 0.54%; viability, T/C [30]: 0.51%"
